For orientation: IC50 means the concentration at which inhibition is half-maximal. The low end stands for inhibition by little substance, the high end for a need for much substance.

The values below come from patent US12018045B2, “17-beta-hydroxywithanolides and use thereof in treating cancer” (The United States of America, as represented by the …, priority 2018, dated 2024).

The structures appear in SMILES notation. A value given as a limit tells only on which side of the number the result lay.

For assay [1], the system named is 22Rv1 prostate cancer cells. The experiment in a line: Growth inhibition of 22Rv1 prostate cancer cells. Particulars: Homo sapiens. Type of assay: cell-based. On the procedure: (§1) LNCaP and 22Rv1 prostate cancer cells and human fibroblasts HFF cells were treated with compounds 1, 2, 3, and 4.
The subject of assay [2] is human fibroblasts HFF cells. Put plainly: Growth inhibition of human fibroblasts HFF cells. Type of assay: cell-based. The method, then: as §1
For the next assay, the system named is SK-MEL-28 melanoma cells. The experiment in a line: Killing of SK-MEL-28 melanoma cells by activated human T cells (crystal violet). Type of assay: cell-based. Particulars: PCC 500 nM 24 h before T cells. The method, then:
6 well costar plates were precoated with anti-CD3 (1 ug/ml) in PBS overnight at 4° C. Wells were washed with PBS then blocked with RPMI+10% FBS for 30 min before adding anti-CD28 (0.2 ug/ml) and purified T cells.
T cells were isolated from human PBMCs using Pan T cell isolation kit (Miltenyi Biotech) as per manufacturers protocol, added to the costar plates and incubated at 37° C. 24 hours later activated T cells were used as effectors.
SK-MEL-28 cells (200,000) were added to costar 6 plates. After 24 h PCC (500 nM) or control DMSO was added, followed 24 h later by addition of activated T cells at different target to effector ratios. After a further 24 hours plates were washed and adherent melanoma cells were fixed with methanol and stained with crystal violet.
SK-MEL-28 melanoma cells were treated with media, compound 1, or compound 1+α-TNFα and then incubated with the activated human T cells.

In assay [3] the test system is cFLIP. Put plainly: cFLIP levels in LNCaP prostate cancer cells (Western blot). Particulars: 125 nM, 250 nM, or 500 nM. Type of assay: cell-based. On the procedure: LNCaP prostate cancer cells were treated with 125 nM, 250 nM, or 500 nM of compounds 1 or 3.
The test system of assay [4] is ACHN, SN12C, Caki-2, TK-10, and UO-31 renal carcinoma cells. Put plainly: Sensitization of renal carcinoma cell lines to TRAIL apoptosis, comparison with IAP and Bcl-2 antagonists. Type of assay: cell-based, human. Particulars: 5 renal carcinomas; compared to Birinapant, GDC-0152, LCL-161, ABT-199 and ABT-737. The method, then: ACHN, S[…], Caki-2, TK-10, and UO-31 cells were treated with compound 1, the IAP antagonists Birinapant, GDC-0152, or LCL-161 and the Bcl-2 antagonists ABT-199 and ABT-737 in the presence and absence of TRAIL.

Assay [5] has as its system cFLIP. The experiment in a line: cFLIP levels in 22Rv1 prostate cancer cells (Western blot). Type of assay: cell-based. Particulars: 22Rv1 cells; 125 nM, 250 nM, or 500 nM. The method, then:
22Rv1 prostate cancer cells were treated with 125 nM, 250 nM, or 500 nM of compounds 1 or 3.
On the technique in general: A western blot detects proteins with antibodies after separation by electrophoresis.

Assay [6] deals with 888, 1383, and Baldwin renal melanoma cells. Put plainly: Sensitization of 888, 1383 and Baldwin melanoma cells to TRAIL apoptosis. Type of assay: cell-based, human. Particulars: 888, 1383, Baldwin melanoma cells; compared to Birinapant or ABT-737. On the procedure: 888, 1383, and Baldwin renal melanoma cells were treated with compound 1 of compound 3, the Birinapant, or ABT-737 in the presence and absence of TRAIL.

In assay [7] the test system is LNCaP prostate cancer cells. The experiment in a line: Growth inhibition of LNCaP prostate cancer cells. Type of assay: cell-based. Conditions: Homo sapiens. The method, then: as §1
In assay [8] the test system is cFLIP. Put plainly: cFLIP reduction in ACHN cells (Western blotting). Type of assay: cell-based, human. Conditions: ACHN renal carcinoma cells; 125, 250, 500 nM; 24 h; compared with compound 1. On the procedure:
This example the effect of compounds 1 and 3 on the reduction of cFLIP in ACHN human carcinoma cells as a function of concentration after 24 exposure to the compounds.
ACHN human renal carcinoma cells were treated with 125 nM, 250 nM, and 500 nM of compounds 1 and 3. After 24 h exposure to the compounds, Western blotting was performed to separate FLIPL and FLIPS, and the results shown in FIG. 3.

Assay [9] relates to cFLIP. The experiment in a line: cFLIP reduction in M14 melanoma cells (Western blotting). Type of assay: cell-based, human. Particulars: 0-500 nM, 24 h, compared with compound 1. On the procedure: M14 human melanoma cells were treated with 0, 31.25, 62.5, 125, 250, or 500 nM of compounds 1 and 3. After 24 h, Western blotting was performed to separate cFLIPL, cFLIPS, and GAPDH.

The subject of another assay is B16F10 melanoma. The experiment in a line: B16F10 melanoma xenograft model in C57B/6 mice. Type of assay: in vivo. Particulars: intra-tumor twice a week for 3 weeks; versus vehicle and compound 1. On the procedure: C57B/6 mice were injected with 5×10^5 B16F10 melanoma cells s.c. Tumors were allowed to grow 8-10 days and then vehicle, compound 1, or compound 3 were injected intra-tumor twice a week for 3 weeks. Tumor growth was monitored until endpoint.

`CC(=O)OC[C@]12CC[C@H]3[C@@H](C[C@H]4O[C@]45CC=CC(=O)[C@]35C)[C@]1(O)CC[C@@]2(O)[C@@](C)(O)[C@H]1CC(C)=C(C)C(=O)O1` [Compound 1, Physachenolide C]: the results for the IC50 in assay [1], in [2] and in assay [7] were 48 ± 2 nM, over 2000 nM and 37 ± 2 nM, respectively. Also, the “killing of human melanoma cells by activated T cells” value in the assay with SK-MEL-28 melanoma cells is given as “enhanced the killing”. Besides, the cFLIP levels result with cFLIP [3] and with cFLIP [5] was “reduction of cFLIP levels” throughout. The “sensitization of TRAIL apoptosis” value in assay [4] and in assay [6] was “superior results” in each case.

With `CC1=C(C)C(=O)O[C@@H]([C@](C)(O)[C@]2(O)CC[C@@]3(O)[C@@H]4C[C@H]5O[C@]56CC=CC(=O)[C@]6(C)[C@H]4CC[C@]23COC(=O)c2ccc(C)o2)C1` [Compound 3, withaperuvin E], the IC50 in assay [1] was 10 ± 2 nM; in assay [2] it was 892 ± 119 nM; in assay [7] it was 14 ± 1 nM. For the same compound, the cFLIP reduction result in the assay on cFLIP [8] and in the assay with cFLIP [9] was “elevated activity over compound 1” each time. In the assay with B16F10 melanoma, the tumor volume entry is given as “lowest”. Moreover, the cFLIP levels result in the assay on cFLIP [3] and in the assay on cFLIP [5] was “reduction of cFLIP levels” in each case. Moreover, in [6], the “sensitization of TRAIL apoptosis” value was “superior results”.

In the case of `CC1=C(C)C(=O)O[C@@H]([C@](C)(O)[C@]2(O)CC[C@@]3(O)[C@@H]4C[C@H]5O[C@]56CC=CC(=O)[C@]6(C)[C@H]4CC[C@]23COC(=O)c2ccc(C)nc2)C1` [Compound 4], the values for the IC50 in assay [1], in assay [2] and in [7] were 17 ± 1 nM, 945 ± 92 nM and 17 ± 8 nM, respectively.

As for `COc1ccc(C(=O)OC[C@]23CC[C@H]4[C@@H](C[C@H]5O[C@]56CC=CC(=O)[C@]46C)[C@]2(O)CC[C@@]3(O)[C@@](C)(O)[C@H]2CC(C)=C(C)C(=O)O2)cc1` [Compound 2], the half-maximal inhibitory concentration (IC50) worked out at 16 ± 4 nM in assay [1], 938 ± 10 nM in assay [2] and 18 ± 2 nM in assay [7].
